Results reported in patent US20100244818A1, “APPARATUS AND METHOD FOR TRANSDUCING AN IN VITRO OR MAMMALIAN SYSTEM WITH A LOW-FREQUENCY SIGNAL” (priority 2006, published 2010).

Legend:
[1] = tested on: tubulin; experiment: tubulin aggregation (polymerization) assay, OD 340 nm; format: biochemical
Excerpt: This assay has been described, for example, in Shelanski, M. L., Gaskin, F. and Cantor, C. R. (1973). Microtubule assembly in the absence of added nucleotides. Proc. Natl. Acad. Sci. U.S.A. 70, 765-768; and Lee, J. C. and Timasheff, S. N. (1977). In vitro reconstitution of calf brain microtubules: effects of solution variable. Biochemistry, 16, 1754-1762.
The assay protocol was designed for performing a single assay in a cuvette using a spectrophotometer set at 340 nm in a kinetic mode. HTS-Tubulin was purchased from Cytoskeleton, Inc. and is supplied in multiple vials as lyophilized protein. […]
The tubulin-assembly reaction was carried out by exposing the tubulin in GPEM buffer, at a concentration of 1.5 mg/ml to the following polymerization conditions: (i) a buffer (control), (ii) tubulin alone (2nd control); (iii) taxol, added to a final concentration of 4 μM, and (iv) the M2(3) taxol signal from above, transduced over a 20 minute period at a transduction voltage calculated to produce an approximately 1.693294 mG magnetic field. Change in optical absorption at 340 nm was measured continuously for each sample, and the OD340 data was used to calculate a rate of tubulin polymerization (dA/minute at 340 nm) at each one minute interval during the transduction study.
The Vmax of the reaction was also calculated for each sample at the end of the 20 minute assay period. […]

[2] = the compound itself; not examined in the study; cited from earlier work

CC(=O)O[C@H]1C(=O)[C@@]2(C)[C@H]([C@H](OC(=O)c3ccccc3)[C@]3(O)C[C@H](OC(=O)[C@H](O)[C@@H](NC(=O)c4ccccc4)c4ccccc4)C(C)=C1C3(C)C)[C@]1(OC(C)=O)CO[C@@H]1C[C@@H]2O [taxol]
rate of tubulin polymerization (dA/minute at 340 nm) ([1]; at two minutes, taxol 4 μM, FIG. 16B): increased significantly
Vmax (single composite, maximum rate of reaction over the entire assay) ([1]; taxol at 4 μM, tubulin 1.5 mg/ml in GPEM buffer, end of 20 minute assay, FIG. 17): ~1.8
delivery to the brain [2]: poorly deliver to the brain
